Where “and” joins values, the source holds several entries; their conditions need not be identical. Identical values can stand only once.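 Step 1: Grow cells in 96-well plates. Step 2: Expose to compound for 48 hours at 5 concentrations. Step 3: Interpolate endpoints linearly; if unreached, use highest concentration. The concentration for 50% growth inhibition is given as GI50. Definition used: TGI = concentration required for complete inhibition of growth.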
How the values were obtained:
Experiment in all cases: NCI tumour cell line growth inhibition, 48 h
[1] = system: MDA-MB-435
[2] = system: SK-MEL-5 melanoma
[3] = system: HCC-2998 colon
[4] = system: HS 578T breast
[5] = system: HL-60(TB) leukemia
[6] = system: UACC-62 melanoma
[7] = system: SK-OV-3 ovarian
[8] = system: CCRF-CEM leukemia
[9] = system: DMS 114 small cell lung
[10] = system: DLD-1 colon
[11] = system: M19-MEL melanoma

Cc1cc(C)c(-c2c(O)c(Br)c(-c3c(C)cc(C)c(Br)c3C)c(O)c2Br)c(C)c1Br
GI50 [1]: 2.35 µM | TGI [1]: 8.55 µM | GI50 [2]: 1.77 µM | TGI [2]: 4.24 µM | GI50 [3]: 2.67 µM | TGI [3]: 7.31 µM | GI50 [4]: 2.32 µM | TGI [4]: 11.9 µM | GI50 [5]: 1.68 µM | TGI [5]: 9.67 µM | GI50 [6]: 1.54 µM | TGI [6]: 4.04 µM | GI50 [7]: 4.77 µM | TGI [7]: 23.8 µM | GI50 [8]: 4.06 µM | TGI [8]: 20.2 µM

OC(Cc1cccc2ccccc12)CN1CCC(c2ccccc2)CC1 (stereo not drawn)
TGI [1]: 28.3 µM | TGI [2]: 24.4 µM | TGI [3]: 10.8 µM | TGI [4]: 32.4 µM | TGI [5]: 41.2 µM | TGI [6]: 28.9 µM | TGI [7]: 31.3 µM | TGI [8]: 62.6 µM

CN1C2C=CC(=O)C1C(C#N)C2 (stereo not drawn)
TGI [1]: > 100 µM | TGI [2]: > 100 µM | GI50 [3]: 32.4 µM and 74.9 µM | TGI [3]: > 100 µM | TGI [4]: > 100 µM | TGI [5]: 43.7 µM and > 100 µM | TGI [6]: > 100 µM | TGI [7]: > 100 µM | TGI [8]: 82.7 µM and > 100 µM

S=C(Nc1ccc(-c2nc3ccccc3s2)cc1)Nc1ccc(-c2nc3ccccc3s2)cc1
GI50 [1]: 24.8 µM | TGI [1]: 73 µM | GI50 [2]: 13.5 µM | TGI [2]: 26.6 µM | GI50 [3]: 17.4 µM | TGI [3]: 31.2 µM | GI50 [4]: 17.8 µM | TGI [4]: 47.4 µM | GI50 [5]: 35.7 µM | TGI [5]: > 100 µM | GI50 [6]: 15.7 µM | TGI [6]: 32 µM | GI50 [7]: 58.8 µM | TGI [7]: > 100 µM | GI50 [8]: 18.4 µM | TGI [8]: 70.6 µM

OC[C@H]1N[C@H](CO)[C@@H](O)[C@H]1O
TGI [1]: > 100 µM | TGI [2]: > 100 µM | TGI [3]: > 100 µM | TGI [4]: > 100 µM | TGI [5]: > 100 µM | TGI [6]: > 100 µM | TGI [7]: > 100 µM | TGI [8]: > 100 µM

N#C/C(=C/C=C/c1cccc(Cl)c1)S(=O)c1ccccc1 (stereo not drawn)
GI50 [1]: 0.448 µM | TGI [1]: 1.69 µM | GI50 [2]: 1.79 µM | TGI [2]: 3.61 µM | GI50 [3]: 0.366 µM | TGI [3]: 1.31 µM | GI50 [4]: 1.68 µM | TGI [4]: 33.4 µM | GI50 [5]: 0.285 µM | TGI [5]: 2.16 µM | GI50 [6]: 1.14 µM | TGI [6]: 2.69 µM | GI50 [7]: 2.21 µM | TGI [7]: 10.2 µM | GI50 [8]: 0.296 µM | TGI [8]: 1.21 µM

COc1c2c(c(O)c3c4c(c(C)cc13)C1OC3(C(OC)OC5CC(C)(O)C(OC6CC(C)(O)C(O)C(C)O6)C(C)O5)OC1C(OC)(O4)C31CO1)C(=O)C(O)CC2OC1CC(C)(O)C(OC(C)=O)C(C)O1 (stereo not drawn)
TGI [9]: < 0.01 µM | TGI [2]: < 0.01 µM | TGI [3]: < 0.01 µM | TGI [10]: 4.17 µM | TGI [5]: < 0.01 µM | TGI [6]: < 0.01 µM | TGI [11]: < 0.01 µM | TGI [7]: 0.714 µM

NCCOCCOCC(=O)O
TGI [9]: > 100 µM | TGI [2]: > 100 µM | TGI [3]: > 100 µM | TGI [6]: > 100 µM | TGI [11]: > 100 µM | TGI [7]: > 100 µM

C=C(CN1CCc2ccccc2C1)c1ccc(CCCC(=O)Nc2ccccc2N)cc1
GI50 [1]: 11.9 µM | TGI [1]: 26.4 µM | GI50 [2]: 5.01 µM | TGI [2]: 17.3 µM | GI50 [3]: 21.1 µM | TGI [3]: 43.2 µM | GI50 [4]: 14 µM | TGI [4]: 43.4 µM | GI50 [5]: 7.13 µM | TGI [5]: 31.3 µM | GI50 [6]: 15.1 µM | TGI [6]: 30.8 µM | GI50 [7]: 19.4 µM | TGI [7]: 52.9 µM | GI50 [8]: 3.06 µM | TGI [8]: > 100 µM

Cc1nc(C(=O)OCc2ccccc2)cc(OCc2ccccc2)c1C
GI50 [1]: 18.5 µM | TGI [1]: > 54.6 µM | GI50 [2]: 10.7 µM | TGI [2]: 26 µM | GI50 [3]: 20.5 µM | TGI [3]: 54.1 µM | GI50 [4]: 18.6 µM | TGI [4]: 47.9 µM | GI50 [5]: 1.53 µM | TGI [5]: 25 µM | GI50 [6]: 11 µM | TGI [6]: 24.8 µM | GI50 [7]: > 89 µM | TGI [7]: > 100 µM | GI50 [8]: 20.5 µM | TGI [8]: 62.1 µM

COC1CCC(OC)C(c2nc3sccn3c2/C=N/N=C(N)N)C1 (stereo not drawn)
GI50 [1]: 17.2 µM | TGI [1]: 36 µM | GI50 [2]: 20.2 µM | TGI [2]: 54.3 µM | GI50 [3]: 31.1 µM | TGI [3]: 54.5 µM | GI50 [4]: 24.6 µM | TGI [4]: 68.6 µM | GI50 [5]: 1.21 µM | TGI [5]: > 36.7 µM | GI50 [6]: 16.6 µM | TGI [6]: 32.4 µM | GI50 [7]: 47.1 µM | TGI [7]: > 100 µM | GI50 [8]: 24.8 µM | TGI [8]: > 64.7 µM

O=C(C#Cc1ccccc1)NC/C=C/c1ccccc1
TGI [9]: > 100 µM | TGI [2]: > 100 µM | TGI [3]: 99.2 µM | TGI [10]: > 100 µM | TGI [5]: 58.1 µM | TGI [6]: > 100 µM | TGI [11]: > 100 µM | TGI [7]: 56.6 µM | TGI [8]: > 100 µM

COc1cc(C=NCC(=O)CSC(c2ccccc2)c2ccccc2)ccc1O
GI50 [1]: 14.3 µM | TGI [1]: 35.7 µM | GI50 [2]: 4.83 µM | TGI [2]: 18.2 µM | GI50 [3]: 3.6 µM | TGI [3]: 16.5 µM | GI50 [4]: 0.0464 µM | TGI [4]: 5.52 µM | GI50 [5]: 11.4 µM | TGI [5]: 27.6 µM | GI50 [6]: 13.6 µM | TGI [6]: 27.5 µM | GI50 [7]: 3.58 µM | TGI [7]: 17.2 µM | GI50 [8]: 8.42 µM | TGI [8]: 50.9 µM

C/C(=N\NC(=S)N1CCCC1)c1ccccn1
GI50 [1]: 0.0299 µM | TGI [1]: 21.8 µM | GI50 [2]: 0.0348 µM | TGI [2]: 0.42 µM | GI50 [3]: 0.132 µM | TGI [3]: 13.9 µM | GI50 [4]: 0.198 µM | TGI [4]: 20.5 µM | GI50 [5]: 0.01 µM | TGI [5]: 0.229 µM | GI50 [6]: 0.09 µM | TGI [6]: 0.534 µM | GI50 [7]: 0.0232 µM | TGI [7]: 11.2 µM | GI50 [8]: < 0.01 µM | TGI [8]: 23.1 µM

O=C(NCCCN1CCN(CCCNC(=O)Nc2cc(Cl)ccc2Cl)CC1)Nc1cc(Cl)ccc1Cl
TGI [9]: > 100 µM | TGI [2]: > 100 µM | TGI [10]: > 100 µM | TGI [5]: > 100 µM | TGI [6]: > 100 µM | TGI [7]: > 100 µM | TGI [8]: > 100 µM

COc1ccc2c(c1)[n+](=O)c(/C=C/C(=O)c1cc(OC)c(OC)c(OC)c1)c(C)n2[O-]
GI50 [1]: 6.65 µM | TGI [1]: > 100 µM | GI50 [2]: 12.6 µM | TGI [2]: 34.3 µM | GI50 [3]: 23.4 µM | TGI [3]: 68.7 µM | GI50 [4]: 4.72 µM | TGI [4]: 46.6 µM | GI50 [5]: 4.98 µM | TGI [5]: 22.4 µM | GI50 [6]: 2.9 µM | TGI [6]: 14.1 µM | GI50 [7]: 23.9 µM | TGI [7]: 92.8 µM | GI50 [8]: 1.87 µM | TGI [8]: 8.08 µM

O=C1C(=O)N(c2cc(Cl)ccc2Cl)C(=O)C(=O)C1c1nc2ccccc2s1
TGI [9]: > 100 µM | TGI [2]: > 100 µM | TGI [10]: > 100 µM | TGI [5]: > 100 µM | TGI [6]: > 100 µM | TGI [11]: > 100 µM | TGI [7]: > 100 µM | TGI [8]: > 100 µM

COc1ccc(C(=O)c2ccccc2)c(O)c1
GI50 [1]: 66.6 µM | TGI [1]: > 100 µM | GI50 [2]: 37.9 µM | TGI [2]: > 100 µM | GI50 [3]: > 100 µM | TGI [3]: > 100 µM | GI50 [4]: 61.2 µM | TGI [4]: > 100 µM | GI50 [5]: 96.9 µM | TGI [5]: > 100 µM | GI50 [6]: 57.1 µM | TGI [6]: > 100 µM | GI50 [7]: > 100 µM | TGI [7]: > 100 µM | GI50 [8]: > 100 µM | TGI [8]: > 100 µM
